# Data taken from US8449864B2 (The Board of Trustees of the Leland Stanford Junior …, priority 2006, dated 2013).
# Assays:
# [1] = system: PMCs; test: 3H-serotonin release from peritoneal mast cells; assay type: cell-based, mouse; conditions: BAPTA-AM, 30 min; ET-1 4 μM
# Source text: Results are mean ±SEM of 3 experiments. […] (data were pooled from triplicate determinations in two independent experiments that gave similar results).
# [2] = system: PLCs containing PMCs; test: NT degradation by peritoneal lavage cells (PLCs) containing peritoneal mast cells; assay type: cell-based, mouse; conditions: BAPTA-AM 50 mM pre-treatment; NT 10 μM, 30 min at 37° C.
# Procedure: FIG. 5. Neurolysin and carboxypeptidase inhibitors prevent NT degradation by peritoneal mast cells. Kit^+/+ PLCs containing 5×10^4 PMCs were pre-treated for 15 min at 37° C. with one of the following protease inhibitors: chymostatin (chym, chymase inhibitor at 100 μM), CFp-Ala-Ala-Phe-pAB (CFp, […] at 10 μM only for PLCs), potato carboxypeptidase inhibitor (PCI, carboxypeptidase inhibitor at 10 μg/ml) and phosphodiepryl 03 (p03, neurolysin inhibitor at 100 nM for PLCs. Cells were then incubated with NT (10 μM) for 30 min at 37° C. Results are the percentage of NT remaining after incubation with cells compared to the starting concentration of NT (n=4-9 per group).
# FIG. 12. (a), PLCs containing 1×10^4 PMCs obtained from either wild type C57BL/6 mice, Ntsr1-deficient (Ntsr1^−/−) mice or Ntsr2-deficient (Ntsr2^−/−) mice were incubated for 2 h with ^3H-5-hydroxytryptamine (3H-serotonin) at 37° C. and stimulated for 15 min at 37° C. with either ET-1 (4 μM) or NT (10 μM). (b), PLCs containing 1×10^4 PMCs obtained from C57BL/6 mice were incubated for 2 h with ^3H-serotonin and stimulated for 15 min with either ET-1 (4 μM) or NT (10 μM). In a separate set of experiments, cells were pre-incubated with BAPTA-AM (Sigma) ([…], 15 min at […]) before the addition of the stimuli. Results are mean ±SEM of 3 experiments. (c), mMC-CPA activity was measured in supernatants obtained from Kit^+/+ PLCs containing 5×10^4 PMCs that were stimulated for 30 min at 37° C. with either ET-1 (4 μM) or NT (10 μM). (d), PLCs containing 5×10^4 PMCs from C57BL/6J mice were pre-treated for 15 min at 37° C. with BAPTA-AM ([…], a Ca^2+ chelator that can reduce MC degranulation) and then incubated with NT (10 μM) for 30 min at 37° C. Results are expressed as the percentage of NT remaining after incubation with cells compared to that in samples of NT incubated in vehicle alone at 37° C. (data were pooled from triplicate determinations in two independent experiments that gave similar results). (e), Expression of mRNA for NT-receptors in the AtT20 neuroendocrine cell line, the mast cell line C1.MC/C57.1, C57BL/6J BMCMCs, Kit^+/+ BMCMCs and peritoneal mast cells purified from Kit^+/+ mice (PMCs).
# NT, ET-1, C-reactive protein, and TNF measurements. Concentrations of NT, C-reactive protein, ET-1 and TNF were measured by ELISA (Bachem Peninsula Labs for NT; Biomedica, Vienna for C-reactive protein and ET-1; BD Biosciences for TNF). […] The detection limits for the ELISA kits were: 24 fmol/ml (NT), 0.048 fmol/ml (ET-1), 0.124 ng/ml (C-reactive protein) and […] (human TNF).
# [3] = target: NTR2 (Homo sapiens, UniProt O95665); conditions: cited from earlier work
# [4] = system: NTR1; conditions: cited from earlier work
# [5] = system: Kit+/+ BMCMCs; test: NT degradation by A23187-activated shRNA-transduced BMCMCs; assay type: cell-based, mouse; conditions: A23187 5 μM; NT 10 μM, 30 min at 37° C.
# Procedure: FIG. 8. MC-associated neurolysin (NLN) contributes to the MCs' ability to reduce NT-induced hypotension. (a) Identification of NLN in the membrane and cytosol fractions of C1.MC/C57.1 MCs and C57BL/6J BMCMCs. (b) Degradation of NT (10 μM) by membrane and cytosol preparations obtained from Kit^+/+ BMCMCs (2×10^6 cells/preparation) that were pre-treated with either vehicle or with Pro-Ile (10 μM, 15 min at […]). Results are expressed as the percentage of NT remaining after incubation with membrane or cytosol preparations compared to that in samples of NT incubated in vehicle alone (n=3). […] Results are expressed as the percentage of NT remaining in the samples compared to that in samples of NT incubated in vehicle alone at 37° C. […] (e) Changes in MAP versus baseline levels (=“0”, measured 3 min after injection of 300 μl saline, i.p.) at various times after injection of NT (6 nmol in 300 μl saline, i.p.) in Kit^W/W-v mice which had been engrafted i.p. with Kit^+/+ BMCMCs treated with either empty vector (empty vector MCs→Kit^W/W-v), NLN-shRNA (NLN-shRNA MCs→Kit^W/W-v) or mMC-CPA-shRNA (mMC-CPA-shRNA MCs→Kit^W/W-v). […]
# NT, ET-1, C-reactive protein, and TNF measurements. Concentrations of NT, C-reactive protein, ET-1 and TNF were measured by ELISA (Bachem Peninsula Labs for NT; Biomedica, Vienna for C-reactive protein and ET-1; BD Biosciences for TNF). […]
# [6] = system: mMC-CPA; test: CPA enzymatic activity in shRNA-transduced BMCMCs; assay type: cell-based, mouse
# Procedure: (§1) FIG. 9. Use of shRNA approach to knock-down NLN and mMC-CPA in BMCMCs. Protein expression for: (a), NLN and (b), mMC-CPA; and (c), mMC-CPA activity in Kit^+/+ BMCMCs treated with either empty vector or shRNAs. (d), mMCP-4 and mMCP-5 protein expression in Kit^+/+ BMCMCs treated with empty vector, NLN-shRNA or mMC-CPA-shRNA.
# CPA enzymatic activity assay. CPA enzymatic activity was assessed by measuring reduction of absorbance of a chromogenic substrate (N-[4-Methoxyphenylazoformyl]-Phe-OH) (Bachem Peninsula Labs) specific for CPA as previously described.
# [7] = system: mMC-CPA; test: shRNA knock-down of mMC-CPA protein in BMCMCs (Western blot); assay type: cell-based, mouse; conditions: Kit+/+ BMCMCs, lentiviral shRNA
# Source text: as §1
# Lentiviral vector production. pLentiLox 3.7 (pLL3.7), a vector engineered to co-express enhanced green fluorescent protein (GFP) as a reporter gene, that permits infected cells to be tracked by flow cytometry, was digested with Xhol and Hpal and the annealed oligos (SEQ ID NO. 3) 5′-t-[…]-ttcaagaga-[…]-ttttttc-3′ and (SEQ ID NO. 4) 5′-tcgagaaaaaa-[…]-tctcttgaa-[…]-a-3′ for mMC-CPA and (SEQ ID NO. 5) 5′-t-[…]-ttcaagaga-[…]-ttttttc-3′ (SEQ ID NO. 6) 5′-tcgagaaaaaa-[…]-tctcttgaa-[…]-a-3′ for NLN were ligated into pLL3.7 to yield a directed shRNA-producing vector. The 19 nt target sequences are indicated in capitals in the oligonucleotide sequence. Active viral stocks were created and concentrated as previously described. Briefly, 293T cells were transfected with the transfer vector plasmid pLL3.7-mMC-CPA or pLL3.7-NLN or pLL3.7 (empty vector), the VSV-G envelope-encoding plasmid pMD.G, and the packaging plasmid CMVΔR8.74 using the calcium phosphate method. […]
# [8] = system: Kit+/+ BMCMCs; test: Beta-hexosaminidase release of BMCMCs upon FcεRI cross-linking; assay type: cell-based, mouse; conditions: vs empty vector-treated cells
# Procedure: FIG. 10. BMCMCs treated with shRNAs degranulate after high affinity Fc receptor for IgE (FcεRI) cross-linking to the same extent than BMCMCs treated with empty vector. Beta-hexosaminidase release by Kit^+/+ BMCMCs treated with empty vector, NLN-shRNA for NLN or mMC-CPA-shRNA. Cells (1.25×10^5) were sensitized with IgE mAb to dinitro-phenol (DNP, 2 μg/ml) overnight at 37° C. and then were challenged with DNP-human serum albumin (DNP-HSA, 10 ng/ml) for 30 min at 37° C.
# Beta-hexosaminidase release. Beta-hexosaminidase was measured on an enzyme-linked immunosorbent assay “reader” that detects the hydrolysis product of p-nitrophenyl-N-acetyl-b-D-glucosamine (Sigma) used as a substrate.
# NTR2, sequence (O95665 whole entry, species assumed): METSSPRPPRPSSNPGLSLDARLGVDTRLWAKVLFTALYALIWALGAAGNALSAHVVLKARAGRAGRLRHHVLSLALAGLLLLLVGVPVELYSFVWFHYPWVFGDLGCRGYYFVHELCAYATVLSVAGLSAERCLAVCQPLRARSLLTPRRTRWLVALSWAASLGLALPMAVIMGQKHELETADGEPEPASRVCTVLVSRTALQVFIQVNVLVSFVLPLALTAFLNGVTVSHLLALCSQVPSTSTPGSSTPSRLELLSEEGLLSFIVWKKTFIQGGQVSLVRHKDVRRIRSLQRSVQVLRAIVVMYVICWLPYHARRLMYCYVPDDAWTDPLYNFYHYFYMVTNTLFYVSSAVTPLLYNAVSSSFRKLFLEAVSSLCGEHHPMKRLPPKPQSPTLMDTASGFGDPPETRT
molecule,measurement,setting,value
CC(=O)OCOC(=O)CN(CC(=O)OCOC(C)=O)c1ccccc1OCCOc1ccccc1N(CC(=O)OCOC(C)=O)CC(=O)OCOC(C)=O [BAPTA-AM],ET-1-induced PMC serotonin release,[1],markedly inhibited
same,ability of PMCs to degrade NT,[2],did not reduce the ability of PMCs to degrade NT
COc1cccc(OC)c1-c1cc(C(=O)NC2(C(=O)O)C3CC4CC(C3)CC2C4)nn1-c1ccc(C(=O)N(C)CCCN(C)C)cc1C(C)C (stereo not drawn) [SR142948A],affinity for NTR2,[3],nanomolar affinity
same,affinity for NTR1 relative to SR48692,[4],higher affinity for NTR1 than SR48692
same,affinity for NTR1,[4]; different tissues and cells from various species,nanomolar affinity
"mMC-CPA-shRNA: lentivirus-delivered short hairpin RNA silencing mMC-CPA, SEQ ID NO. 3/4 (nucleic acid) chain 1: TGAAACAGTTTGATGTGAAATTCAAGAGATTTCACATCAAACTGTTTCTTTTTTC chain 2: TCGAGAAAAAAGAAACAGTTTGATGTGAAATCTCTTGAATTTCACATCAAACTGTTTCA",ability to degrade NT after activation with A23187,[5],significantly reduced ability to degrade NT
same,mMC-CPA enzymatic activity,[6],substantially reduced
same,reduction in mMC-CPA protein expression level,[7],90%
same,degranulation upon FcεRI cross-linking,[8],degranulated to the same extent
